Test results: patent US10881642B2, “Autophagy enhancer and use thereof” (Industry-Academic Cooperation Foundation, Yonsei University, priority 2016, dated 2021)

System: ob/ob mice
Test: Metabolic profile of ob/ob mice
Type: in vivo
Protocol: FIG. 6A and FIG. 6B each indicates the fasting blood sugar and the body weights respectively from ob/ob mice which were treated with vehicle control or (50 mg/kg/2 days) for 8 weeks. FIG. 6C indicates the amount of feed intake from ob/ob mice which were treated with vehicle control or for 8 weeks. FIG. 6D and FIG. 6E each indicates the IPGTT results and AUC value measured after the 8 week administration. FIG. 6F and FIG. 6G indicates the ITT results and AUC value measured after the 8 week administration. FIG. 6H indicates the fasting blood sugar after the 8 week administration. FIG. 6I indicates the concentration of insulin after the 8 week administration. FIG. 6J indicate the result of HOMA-IR measured after the 8 week administration. FIG. 6K indicates the results the Insulinogenic index measured after the 8 week administration. Error bars, S.D. *, P<0.05; **, P<0.01; ***, P<0.001. Students t-test and one-way ANOVA.
FIG. 8A is the result of Hematoxylin-Eosin stained liver section from ob/ob mice treated with MSL compound or vehicle for 8 weeks. FIG. 8B is the result of measuring the concentration of TG using free glycerol reagent containing lipase in the lipid sample extracted using a mixture of chloroform/ethanol from the liver of ob/ob mice. FIG. 8C is the result of blood chemistry profile analyzed using chemical analyzer from serum sample obtained from ob/ob mice treated with MSL compound or vehicle for 8 weeks. FIG. 8D is the result of Hematoxylin-Eosin stained white adipose tissue section from ob/ob mice treated with MSL compound or vehicle for 8 weeks. FIG. 8E is the immuno-stained result of F4/80+ cells from white adipose tissue (left) and the quantification result of adipose cell F4/80+ CLS (right) indicated as a frequency of CLS (crown-like structures) in the white adipose tissue of the mice as described above. FIG. 8F is the result of quantifying the expression of WAT gene from the mice as described above using RT-PCR. Error bars, S.D. *, P<0.05; **, P<0.01; ***, P<0.001.
FIG. 11A is the result of fasting glucose concentration of ob/ob mice administered with vehicle control or MSL-7 (50 mg/kg/2 days) for 8 weeks. FIG. 11B is the body weight monitored of the mice of FIG. 11A. FIG. 11C is the result of experiments performed at 8 weeks after the administration of IPGTT (FIG. 1 IC) and ITT (FIG. 11D). FIG. 11E is the results of measuring blood chemistry profile of the ob/ob mice administered with vehicle control or MSL-7 compound for 8 weeks using chemical analyzer. Error bars, S.D. *, P<0.05; **, P<0.01; ***, P<0.001. Students t-test and one-way ANOVA. […]
We next studied whether MSL can activate autophagic flux in vivo. When we administered MSL after pretreatment with leupeptin (Ueno, T et al. (1991) Membrane markers of endoplasmic reticulum preserved in autophagic vacuolar membranes isolated from leupeptin-administered rat liver. J Biol Chem 266, 18995-18999), LC3-I to -II conversion was increased in the liver, supporting that MSL can increase autophagic flux in vivo. We next studied whether MSL administration can improve metabolic profile associated with obesity. We treated ob/ob mice with MSL at 50 mg/kg for 8 weeks.

| SMILES | body weight (50 mg/kg, 8 weeks) | non-fasting blood glucose level (50 mg/kg, 8 weeks) | glucose tolerance (IPGTT) (8 weeks) | insulin sensitivity (ITT) (8 weeks) | Food intake (50 mg/kg, 8 weeks) | AUC of IPGTT and ITT (8 weeks) | Fasting blood glucose levels (8 weeks) | HOMA-IR index (8 weeks) | Serum ALT/ASL levels (8 weeks) | number of crown-like structures (CLSs) in WAT (8 weeks) | accumulation of lipid droplets in the liver (8 weeks, H&E) | expression of inflammatory markers (Tnfa, I-16, II-1β, F4/80), real-time RT-PCR (WAT, 8 weeks) | liver lipid content (Oil Red O staining) (data not shown) |
| --- | --- | --- | --- | --- | --- | --- | --- | --- | --- | --- | --- | --- | --- |
| COc1oc(-c2ccccc2Cl)nc1S(=O)(=O)c1ccccc1 [MSL-7, 2-(2-chlorophenyl)-5-methoxy-4-(phenylsulfonyl) oxazole] | without significant effect on body weight | significantly improved | significantly improved | significantly improved |  |  |  |  |  |  |  |  |  |
| CSc1oc(-c2ccccc2)nc1S(=O)(=O)c1ccc(F)cc1 [MSL] | not affected | significantly decreased | significant improvement | significant improvement | not affected | reduced | significantly improved | slightly decreased | significantly reduced | significantly decreased | apparently reduced | significantly reduced | decreased |
